According to patent publication US6849598B1, “Therapeutic compositions comprising bactericidal/permeability-increasing (BPI) protein products” (XOMA, priority 1995, dated 2005):

System: P. aeruginosa (ATCC 19660)
Assay: Antibiotic susceptibility (MIC, Microscan® MIC Plus Type 2 panel) with rBPI21/P123 and EDTA
Type: cell-based
Design: key to susceptibility interpretation of MIC (superscript): R: resistant; I: intermediate; S: susceptible
Conditions: for effect of EDTA added to the rBPI21/P123 formulation on susceptibility of the strain to the antibiotic: summary of Table 17
Procedure: In additional experiments, a BPI protein product, rBPI21, was formulated with an anti-bacterial activity enhancing poloxamer, specifically PLURONIC P123, and with various concentrations of EDTA, and was evaluated for its effect on the antibiotic susceptibility of a Pseudomonas aeruginosa (ATCC 19660). Antibiotic susceptibility was determined using Microscan® panel plates (Dade Microscan, West Sacramento, Calif.) that allow simultaneous determination of minimum inhibitory concentrations for a number of different antibiotics.
The antimicrobial susceptibility tests performed on the Microscan® panel plates are miniaturizations of the broth dilution susceptibility test. Antimicrobial agents are serially diluted in Mueller-Hinton broth (supplemented with calcium and magnesium, or with sodium chloride for oxacillin, or with thymidine phosphorylase for trimethoprim, sulfamethoxazole and trimethoprim/ sulfamethoxazole) to concentrations bridging the range of clinical interest. One well on the 96-well Microscan® plate is a growth control well that contains dehydrated broth only. The remaining wells contain dehydrated broth and antibiotic (or broth and biochemical reagent indicator), which is rehydrated to the desired concentration by inoculation of a standardized suspension of test organism. The chromogenic biochemical agent indicators are used to identify and characterize the species of bacteria based on detection of pH changes and substrate utilization. […] Gram-negative and gram positive organisms may be tested using any of the Microscan® panel plates (Microscan®, Dade Microscan, West Sacramento, Calif.). In these experiments with P. aeruginosa, the MIC Plus Type 2 panel plates were used. The concentrations of antibiotics tested in this panel plate are shown below in Table 16. The antibiotic susceptibility standards (interpretation of an MIC as resistant, intermediate or susceptible according to Microscan®'s NCCLS-derived standards) applicable to the gram-negative organisms that may be tested in each panel plate appear below in Table 16A.
For these experiments with P. aeruginosa, the following procedure was performed: The organism was streaked onto TSA plates (Remel, Lenexa, Kans.) and incubated for 18-24 hours overnight. Well-isolated A, colonies from the plates were emulsified in 3 ml of sterile Inoculum Water d(catalog no. B1015-2, MicrosScan® system, Dade Microscan, West Sacramento, Calif.) to a final turbidity equivalent to 0.5 McFarland Barium Sulfate standard. This cell suspension was vortexed for 2 to 3 seconds and 100 μl was transferred to glass tubes containing 25 ml of Inoculum Water with Pluronic-D (catalog no. B1015-7, MicroScan® system, Dade Microscan, West Sacramento, Calif.) (hereinafter “Pluronic Inoculum Water”), or 25 ml of Pluronic Inoculum Water into which rBPI21 in 0.2% PLURONIC P123, 0.002% TWEEN 80, 5mM sodium citrate, 150 mM NaCl (“rBPI21/P123”) had been diluted to 64 μg/ml rBPI21.
The 25 ml of this inoculum containing rBPI21 was mixed by inversion and poured into a tray. The inoculum was drawn up into a manual 96-well pipetting system (RENOK^− rehydrator-inoculator system, Dade Microscan, West Sacramento, Calif.) designed for use with the Microscan® panel plates, and 110 μl of the inoculum was delivered to each well of a Microscan® MIC Plus Type 2 panel plate. When added to the wells, this inoculum achieves a final bacterial concentration of 4×10^5 to 7×10^5 CFU/ml. The panel plates were then incubated at 35° C. for 15-24 hours and read visually for cell growth.
No growth was defined as a slight whiteness in the well or a clear broth. Growth appeared as turbidity which could take the form of a white haze throughout the well, a white button in the center of the well, or a fine granule growth throughout the well. All wells were read against a black indirectly lighted background. Visual results of the biochemical reactions were read into a database for bacterial identification.

[1] = rBPI21/P123 at 64 μg/ml rBPI21, With 0% EDTA
[2] = rBPI21/P123 at 64 μg/ml rBPI21, With 0.01% EDTA
[3] = rBPI21/P123 at 64 μg/ml rBPI21, With 0.05% EDTA
[4] = rBPI21/P123 at 64 μg/ml rBPI21, With 0.1% EDTA

susceptibility interpretation of MIC (superscript) (Control (No BPI21))	susceptibility interpretation of MIC (superscript) [1]	susceptibility interpretation of MIC (superscript) [2]	susceptibility interpretation of MIC (superscript) [3]	susceptibility interpretation of MIC (superscript) [4]	SMILES	Minimum Inhibitory Concentration of Antibiotic (Control (No BPI21)) [µg/mL]	Minimum Inhibitory Concentration of Antibiotic [1] [µg/mL]	Minimum Inhibitory Concentration of Antibiotic [2] [µg/mL]	Minimum Inhibitory Concentration of Antibiotic [3] [µg/mL]	Minimum Inhibitory Concentration of Antibiotic [4] [µg/mL]	effect of EDTA added to the rBPI21/P123 formulation on susceptibility of the strain to the antibiotic
S	S	S	S	S	CC1(C)S[C@@H]2[C@H](NC(=O)[C@H](NC(=O)N3CCNC3=O)c3ccccc3)C(=O)N2[C@H]1C(=O)O [Azlocillin]	< 64	< 64	< 64	< 64	< 64	
S	S	S	S	S	C[C@H]1[C@H](NC(=O)/C(=N\OC(C)(C)C(=O)O)c2csc(N)n2)C(=O)N1S(=O)(=O)O [Aztreonam]	4	4	< 1	2	< 1	increasing the susceptibility
I	S	S	S	S	CC1(C)S[C@@H]2[C@H](NC(=O)C(C(=O)O)c3ccccc3)C(=O)N2[C@H]1C(=O)O (stereo partly drawn) [Carbenicillin]	32	< 16	< 16	< 16	< 16	
R	R	R	R	S	Cn1nnnc1SCC1=C(C(=O)O)N2C(=O)[C@@H](NC(=O)[C@H](O)c3ccccc3)[C@H]2SC1 [Cefamandole]	> 32	> 32	> 32	> 32	< 4	reversing resistance
R	R	S	S	S	O=C(O)C1=C(CSc2nnnn2CS(=O)(=O)O)CS[C@@H]2[C@H](NC(=O)[C@H](O)c3ccccc3)C(=O)N12 [Cefonicid]	> 16	> 16	< 2	< 2	< 2	reversing resistance
S	S	S	S	S	CCN1CCN(C(=O)N[C@@H](C(=O)N[C@@H]2C(=O)N3C(C(=O)O)=C(CSc4nnnn4C)CS[C@H]23)c2ccc(O)cc2)C(=O)C1=O [Cefoperazone]	< 4	< 4	< 4	< 4	< 4	
I	I	S	S	S	CO/N=C(\C(=O)N[C@@H]1C(=O)N2C(C(=O)O)=C(COC(C)=O)CS[C@H]12)c1csc(N)n1 [Cefotaxime]	32	16	4	< 2	< 2	increasing the susceptibility
R	R	S	S	S	CO[C@@]1(NC(=O)C2SC(=C(C(N)=O)C(=O)O)S2)C(=O)N2C(C(=O)O)=C(CSc3nnnn3C)CS[C@@H]21 (stereo partly drawn) [Cefotetan]	> 32	> 32	< 4	< 4	< 4	
S	S	S	S	S	C[C@@H](O)[C@H]1C(=O)N2C(C(=O)O)=C(SCCN=CN)C[C@H]12 [Imipenem]	1	1	< 0.5	< 0.5	< 0.5	
S	S	S	S	S	CC1(C)S[C@@H]2[C@H](NC(=O)[C@H](NC(=O)N3CCN(S(C)(=O)=O)C3=O)c3ccccc3)C(=O)N2[C@H]1C(=O)O [Mezlocillin]	< 16	< 16	< 16	< 16	< 16	
S	S	S	S	S	CCN[C@@H]1C[C@H](N)[C@@H](O[C@H]2OC(CN)=CC[C@H]2N)[C@H](O)[C@H]1O[C@H]1OC[C@](C)(O)[C@H](NC)[C@H]1O [Netilmicin]	4	< 2	< 2	< 2	< 2	
